This note sets out measurements from patent US11358931B2, “Selective androgen receptor modulators (SARMs) and uses thereof” (priority 2007, dated 2022).

Data set [1] concerns the target T1, baculovirus expressed hAR protein (Homo sapiens, UniProt P10275).
T1 construct: made in house; host or cells: Sf-21 insect cells (baculovirus)
T1 sequence (P10275 1-920): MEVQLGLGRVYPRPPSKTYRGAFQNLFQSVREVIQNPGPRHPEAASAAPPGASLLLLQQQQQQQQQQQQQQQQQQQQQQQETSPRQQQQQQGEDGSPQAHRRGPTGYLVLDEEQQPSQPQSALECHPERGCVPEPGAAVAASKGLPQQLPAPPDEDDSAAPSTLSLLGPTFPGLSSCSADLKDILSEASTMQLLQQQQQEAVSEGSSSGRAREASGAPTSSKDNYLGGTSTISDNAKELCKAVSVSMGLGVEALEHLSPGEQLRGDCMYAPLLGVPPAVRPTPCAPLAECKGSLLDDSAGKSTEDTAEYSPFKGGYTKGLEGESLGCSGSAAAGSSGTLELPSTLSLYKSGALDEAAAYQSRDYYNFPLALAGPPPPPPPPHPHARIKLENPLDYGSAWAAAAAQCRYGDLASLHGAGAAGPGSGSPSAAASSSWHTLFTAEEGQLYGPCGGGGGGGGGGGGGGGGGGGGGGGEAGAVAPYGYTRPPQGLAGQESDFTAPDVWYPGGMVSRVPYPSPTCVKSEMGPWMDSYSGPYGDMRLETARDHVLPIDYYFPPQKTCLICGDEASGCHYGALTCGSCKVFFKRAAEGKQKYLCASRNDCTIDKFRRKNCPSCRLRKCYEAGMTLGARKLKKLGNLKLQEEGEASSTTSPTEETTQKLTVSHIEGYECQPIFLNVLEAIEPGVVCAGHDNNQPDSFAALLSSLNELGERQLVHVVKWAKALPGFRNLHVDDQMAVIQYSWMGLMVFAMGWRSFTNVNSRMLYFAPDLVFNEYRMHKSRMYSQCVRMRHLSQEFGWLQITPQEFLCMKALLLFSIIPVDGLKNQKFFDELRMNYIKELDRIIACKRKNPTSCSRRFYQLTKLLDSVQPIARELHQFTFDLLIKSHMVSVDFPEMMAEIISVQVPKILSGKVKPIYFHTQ
The data set can be described thus: Receptor binding assay ([3H]-dihydrotestosterone displacement).

The nature of data set [2]: Pharmacokinetics in ovariectomized female rats (plasma, Day 14). The class given is in vivo, rat. Conditions: OVX female rats; for AUC: female, po; for AUC / Cmax / Tmax: rat, plasma, PO. As for the experimental part:
After the 14th dose, approximately 250 μL venous blood was collected via percutaneous jugular puncture from the rats at 0, 0.5, 1, 2, 4 and 6 hours post-dosing. The blood samples were collected into lithium-heparin tubes (Becton Dickinson, Franklin Lakes, N.J.). Plasma fractions were collected for pharmacokinetic analysis. Approximately 24 hours after the last dose, rats were sacrificed by cardiac exsanguination, and blood was collected into serum separator tubes (Becton Dickinson), and the gastrocnemius muscle, plantaris muscle, uterus, clitoral glands, clitoris and inguinal fat pads were isolated, blotted and weighed individually. Uterine weight measurements can be inaccurate in surgically ovariectomized rats due to the potential loss of uterine tissue at the tips of the uterine horns during removal of the ovaries. To minimize this variability, the length of the uterine horns was measured and the uterine weight was reported normalized to uterine length. The left femur and lumbar vertebra L5 were wrapped in saline-soaked gauze and stored at −20° C. for biochemical analysis. The right femur and lumbar vertebrae L3-L4 were collected and stored in 70% ethanol for histomorphometry. The right tibia was collected in formalin for histological analysis. The left tibia was collected on dry ice and stored at −20° C. for measurement of alkaline phosphatase activity.
Pharmacokinetic analysis was performed as described in Example 13.

[3] abbreviates: 0.03 mg/kg, Day 14, 0.03 mg/kg, mean ± SD of n = 4, read-out: AUC6.
The mark [4] stands for this setting: 0.03 mg/kg, Day 14, 0.03 mg/kg, n = 4, 0 hr conc. substituted for 24 hr, read-out: AUC24.
[5] abbreviates: 0.3 mg/kg, Day 14, 0.3 mg/kg, mean ± SD of n = 4, read-out: AUC6.
The mark [6] stands for this setting: 0.3 mg/kg, Day 14, 0.3 mg/kg, n = 4, 0 hr conc. substituted for 24 hr, read-out: AUC24.
Setting [7] is: 3 mg/kg, Day 14, 3 mg/kg, mean ± SD of n = 4, read-out: AUC6.
Setting [8] is: 3 mg/kg, Day 14, 3 mg/kg, n = 4, 0 hr conc. substituted for 24 hr, read-out: AUC24.
Where [9] appears, read: Day 14, 0.03 mg/kg, mean ± SD of n = 4.
Where [10] appears, read: Day 14, 0.3 mg/kg, mean ± SD of n = 4.
The mark [11] stands for this setting: Day 14, 3 mg/kg, mean ± SD of n = 4.

Read-outs that look alike come from different tables or passages of the source.

By Ki is commonly meant the equilibrium dissociation constant of an inhibitor or competing ligand from its target. Read a low Ki as a stronger hold on the target. A word on the Cmax: it is the highest concentration seen after dosing. In general, Tmax refers to the time from dosing to the highest level. Molecule `N#Cc1ccc(N2CCC[C@@H]2[C@@H](O)C(F)(F)F)cc1C(F)(F)F` [Compound 102, R,R-4-(2-(1-Hydroxyl-2,2,2-trifluoroethyl)-pyrrolidinyl)-2-trifluoromethyl-benzonitrile] gave a Ki in data set [1] of 0.9 nM. Further, the AUC in data set [2] (setting [3]) is 56 ± 56 ng·h/mL; in data set [2] (setting [4]) it was 119 ± 90 ng·h/mL; in data set [2] (setting [5]), 51 ± 41 ng·h/mL; in data set [2] (setting [6]) it was 229 ± 289 ng·h/mL; in data set [2] (setting [7]) it was 404 ± 199 ng·h/mL; in data set [2] (setting [8]), 880 ± 326 ng·h/mL. Moreover, the figures for the Cmax in data set [2] (setting [9]), in data set [2] (setting [10]) and in data set [2] (setting [11]) were 39 ± 28 ng/mL, 40 ± 34 ng/mL and 207 ± 87 ng/mL, respectively. Moreover, the Tmax was found to be 210 ± 114 min in data set [2] (setting [9]), 30 ± 24 min in data set [2] (setting [10]) and 30 min in data set [2] (setting [11]).

The molecule `O=[N+]([O-])c1ccc(N2CCC[C@@H]2[C@@H](O)C(F)(F)F)cc1C(F)(F)F` [LG0893410, R,R-2,2,2-trifluoro-1-[1-(4-nitro-3-trifluoromethyl-phenyl)-pyrrolidin-2-yl]-ethanol] yielded a Ki in data set [1] of 2.5 nM. That is a single-digit nanomolar value.

In turn, `O=[N+]([O-])c1ccc(N2CCC[C@@H]2[C@H](O)C(F)(F)F)cc1C(F)(F)F` [LG0893411, S, R-2,2,2-trifluoro-1-[1-(4-nitro-3-trifluoromethyl-phenyl)-pyrrolidin-2-yl]-ethanol] yielded a Ki in data set [1] of 5.7 nM.

For `C[C@](O)(COc1ccc(C#N)cc1)C(=O)Nc1ccc(C#N)c(C(F)(F)F)c1` [ostarine], the “systemic exposure compared with Compound 102” value in data set [2] (equal doses) is given as “significantly higher exposure”. For the same molecule, the AUC stood at 125 ± 22 ng·h/mL in data set [2] (setting [3]); 552 ± 118 ng·h/mL in data set [2] (setting [4]); 1080 ± 105 ng·h/mL in data set [2] (setting [5]); 4140 ± 448 ng·h/mL in data set [2] (setting [6]); 5040 ± 1300 ng·h/mL in data set [2] (setting [7]); 20600 ± 3650 ng·h/mL in data set [2] (setting [8]). The Cmax in data set [2] (setting [9]) was determined as 35 ± 7 ng/mL; in data set [2] (setting [10]) it was 332 ± 40 ng/mL; in data set [2] (setting [11]), 1480 ± 429 ng/mL. The results for the Tmax in data set [2] (setting [9]), in data set [2] (setting [10]) and in data set [2] (setting [11]) were 156 ± 144 min, 36 ± 12 min and 66 ± 36 min, respectively.
